The subject of one series is inflammatory pain. The experiment in a line: Inflammatory pain models induced by formalin or CFA (summary statements). It counts as in vivo, mouse. The protocol: (§1) Animals and pain models. Adult CD1 mice (male, 25-32 g) were used for most experiments. Knockout mice were used lacking TNFR1/II (Tnfrsf1a/1b^−/−) and TRPV1 (Trpv1^−/−) and C57BL/6 wild-type control mice, all from Jackson, for some experiments. All animal procedures performed in this study were approved by the Harvard Medical Area Standing Committee on Animals. 20 μl of diluted formalin (5%), carrageenan (CRG, 1%), or complete Freund's adjuvant (CFA) were injected into the plantar surface of a hindpaw to produce acute, persistent, or chronic inflammatory pain, respectively. Postoperative pain was also produced through hindpaw incision^36 and neuropathic pain by ligation of the spinal nerve^37.
(§2) Behavioral analysis. Mice were habituated in the testing environment for two days and performed behavioral testing in a blinded manner. Formalin-evoked spontaneous inflammatory pain was assessed by measuring duration (seconds) animals spent on licking/flinching the affected paws every 5 min for 45 min. Capsaicin-induced spontaneous pain was aslo assessed for 10 min. For testing mechanical sensitivity, mice were put in boxes on an elevated metal mesh floor and stimulated hindpaw with a series of von Frey hairs with logarithmically incrementing stiffness (0.02-2.56 grams, Stoelting), presented perpendicular to the plantar surface. It was determined the 50% paw withdrawal threshold using Dixon's up-down method^40. For testing heat sensitivity, mice were placed in plastic boxes and tested heat sensitivity using Hargreaves radiant heat apparatus (IITC Life Science Inc.). The basal paw withdrawal latency was adjusted to 9-12 seconds and set a cut-off of 20 seconds to prevent tissue damage. The percent maximal possible antinociceptive effect (% M.P.E) was calculated using the equation % M.P.E.=[(PL−BL2)/(BL1−BL2)]×100. BL1, baseline latency before inflammation; BL2, baseline latency after inflammation but before drug injection; PL, latency post drug injection.

The test system of series [1] is carrageenan (CRG)-elicited heat hyperalgesia. Kind of series: Carrageenan (CRG)-elicited heat hyperalgesia. It counts as in vivo, mice. How it is done:
as §1, §2
Resolvins were also used for intraplantar injection. […]

Series [2] deals with complete Freund's adjuvant (CFA)-evoked heat hyperalgesia. Kind of series: CFA-evoked heat hyperalgesia (paw withdrawal latency, Hargreaves). It counts as in vivo, mice. The note with it: intrathecal, post-CFA day 3; DHA and EPA 10 μg. The protocol: as §1
(§3) Reagents and administration. RvE1 and RvD1 were suspended in 1% or 10% ethanol as vehicle for investigating acute (<1 h) and persistent (1-6 h) effects of resolvins on inflammatory pain. The reagents (10 μl) were delivered to the cerebral spinal fluid via intrathecal injection made by a spinal cord puncture between the L5 and L6 level with a 30G needle^38.
as §2
(§4) Intrathecal injection. To avoid systemic effects of drugs and target spinal mechanisms, drugs were delivered into cerebral spinal fluid (CSF) space around lumbosacral spinal cord via intrathecal (i.t.) administration. Spinal cord puncture was made with a 30G needle between the L5 and L6 level to deliver the reagents (10 μl) to the cerebral spinal fluid (Hylden and Wilcox, 1980)^5. […] In addition to spinal cord cells, intrathecal drug administration also affects DRG cells^6,7.
The anti-hyperalgesic efficacy of RvE1 prepared in 1% and 10% ethanol was compared on post-CFA day 3.

Series [3] concerns paw incision-induced postoperative pain. Kind of series: Postoperative pain model induced by hindpaw incision. It counts as in vivo, mice. The following applies: intraplantar 20 ng, 10 min before paw incision. The protocol: as §1
Behavioral analysis. Mice were habituated in the testing environment for two days and performed behavioral testing in a blinded manner. Formalin-evoked spontaneous inflammatory pain was assessed by measuring duration (seconds) animals spent on licking/flinching the affected paws every 5 min for 45 min. Capsaicin-induced spontaneous pain was aslo assessed for 10 min. […] It was determined the 50% paw withdrawal threshold using Dixon's up-down method^40. […] The percent maximal possible antinociceptive effect (% M.P.E) was calculated using the equation % M.P.E.=[(PL−BL2)/(BL1−BL2)]×100. […]

In a further series the test system is ChemR23. The experiment in a line: ChemR23 western blotting after siRNA knockdown. The class given is in vivo, mice. How it is done: siRNAs were mixed with the transfection reagent polyethyleneimine (PEI, Fermentas), 10 min before injection, to increase cell membrane penetration and reduce the degradation (Tan et al., 2005; 2009)^9,10. PEI was dissolved in 5% glucose, and […] of siRNA was mixed with 0.18 μl of PEI, as shown in our previous study (Kawasaki et al., 2008)^7. In the formalin model, siRNA was administrated via intrathecal route (3 μg), delivered at 72 h, 48 h, and 24 h before formalin injection (supplementary FIG. 1a, b). In the carrageenan model, siRNA was administrated via intraplantar route (4 μg), delivered at 48 h, 24 h, and 3 h before carrageenan injection (supplementary FIG. 1c, d). The knockdown effects of ChemR23 siRNA were examined by Western blotting using a ChemR23 antibody (Santa Cruz).
Animals were transcardially perfused with PBS, and the skin, DRG, and spinal cord tissues were rapidly removed and homogenized in a lysis buffer containing a cocktail of protease inhibitors and phosphatase inhibitors. The protein concentrations were determined by BCA Protein Assay (Pierce), and 30 μg of proteins were loaded for each lane and separated on SDS-PAGE gel (4-15%, Bio-Rad). After the transfer, the blots were incubated overnight at 4° C. with polyclonal antibody against ChemR23 (goat, 1:200, Santa Cruz). For loading control, the blots were probed with tubulin antibody (mouse, 1:5000, Sigma).

The test system of series [4] is formalin-induced inflammatory pain. The experiment in a line: Formalin-induced spontaneous inflammatory pain (licking/flinching duration). It counts as in vivo, mice. The following applies: intrathecal; pertussis toxin 0.2 μg, naloxone 2 μg, ChemR23 siRNA 3 μg daily for 3 days before formalin. How it is done:
as §1, §3, §2, §4
Intrathecal injection: DHA and EPA (Cayman Chemical, 10 μg, prepared in 1% ethanol), COX-2 inhibitor NS-398 (Sigma, 0.1, 1, and 10 μg, prepared in 1% ethanol in FIG. 1a-c or in 10% ethanol in FIG. 2c), morphine (Sigma, 10 to 500 ng, prepared in 1% ethanol in FIG. 1a-c), naloxone (Sigma, 2 μg, prepared in 1% ethanol), pertussis toxin (Tocris Bioscience, 0.2 μg, prepared in saline), chemerin (R & D Systems, 0.45 to 100 ng, prepared in 1% ethanol), TNF-α (R & D Systems, 20 ng, prepared in saline), and capsaicin (Sigma, 0.5 μg in 10 μl, prepared in 1% DMSO) were delivered. To examine whether pretreatment of RvE1 attenuated TNF-α-induced persistent hyperalgesia at 1, 3, and 24 h, RvE1 and TNF-α were mixed and injected at the same time (FIG. 3c). To examine whether pretreatment of RvE1 attenuates capsaicin-induced acute spontaneous pain, RvE1 and capsaicin were mixed and injected at the same time (FIG. 3f).

These results are taken from patent US20120245229A1, “METHOD FOR TREATING NEUROPATHIC PAIN” (priority 2009, published 2012).

For `CC/C=C\C[C@H](O)/C=C/C=C\C=C\C=C\[C@@H](O)[C@@H](O)C/C=C\CCC(=O)O` [RvD1], in the series with inflammatory pain, the pain-like behaviors entry is given as “potently inhibit”. Also, the CRG-evoked heat hyperalgesia result in series [1] (intraplantar pretreatment, 20 ng, 10 min before carrageenan) is “substantially attenuated”. Further, the CFA-evoked heat hyperalgesia result in series [2] was “Attenuation”. Moreover, in series [3], the “paw incision-induced mechanical allodynia” value is “attenuates the development of paw incision-induced mechanical allodynia”.

Turning to “ChemR23 siRNA: 5′-AACACUGUGUGGUUUGUCAACtt-3′, synthesized by Dharmacon (guide AACACUGUGUGGUUUGUCAACTT; chemistry not given here)”, the “reversal of RvE1-induced anti-hyperalgesic effect” value in series [1] (intraplantar ChemR23 siRNA 4 μg at 48 h, 24 h, and 3 h before carrageenan, 4 h after CRG) is listed as “reverses RvE1-induced anti-hyperalgesic effect”. Further, the “ChemR23 expression in the hindpaw skin” value with ChemR23 (intraplantar siRNA 4 μg at 48 h, 24 h, and 3 h before carrageenan) was “reduces ChemR23 expression in the hindpaw skin”. The “ChemR23 expression in the DRG” value with ChemR23 (intrathecal siRNA 3 μg, daily for 3 days, before formalin injection) is “reduces ChemR23 expression in the DRG”. The “reversal of RvE1's antinociceptive action, formalin 2nd phase” value in series [4] was “reverses RvE1-induced antinociceptive effect”.
